| SMILES | melting point [°C] |
| --- | --- |
| COC(=O)COc1ccc(-c2c3ccccc3cc3sc4cc(OCC(=O)OC)ccc4c23)cc1 | 152 to 154 |
| O=C1c2ccccc2C(=O)c2c1cccc2N1CCNCC1 | 190 |
| CC(F)(F)S(=O)(=O)c1c(C(N)=S)nn(-c2c(Cl)cc(C(F)(F)F)cc2Cl)c1N | 228 to 229 |
| O=C(O)COc1ccc2c(-c3ccccc3F)noc2c1Cl | 188 to 189 |
| Cn1cc(C(=O)O)c2nc3ncccc3cc2c1=O | > 300 |
| CCOC(C)n1cnc(C(N)=O)n1 (stereo not given) | 163 to 166 |
| NC(=O)c1ccc(F)c2c1OCC(N)C2 (stereo not given) | 128 |
| COc1cc(C)cc2nc(SCc3ccccc3)nn12 | 85 to 87 |
| COc1ccc(Sc2cccc(C(=O)O)c2)cc1 | 121 to 123 |
| O=C1NC(=O)C(Cc2ccc(OCc3cscn3)cc2)S1 (stereo not given) | 151 to 153 |
| O=C1Nc2ccccc2C1=C(c1ccc(Cl)cc1)c1ccc(Cl)cc1 | 206 to 208 |
| O=c1[nH]cnc2cc(OCc3ccccc3)ccc12 | 267 to 269 |
| Nc1cc(C(=O)O)cc(S(N)(=O)=O)c1NCc1ccccc1 | 218 to 219 |
| COc1ccc(-n2cnc3c(-c4ccc(C(F)(F)F)cc4F)ncnc32)cc1 | 181 to 183 |
| O=C(CN1CCOCC1)Nc1ccc(-c2n[nH]c3c2Cc2ccccc2-3)cc1 | 291 to 292 |
| CCOC(=O)C(C)Oc1ncn(-c2cccc(Br)c2)n1 (stereo not given) | 83 to 85 |
| C=C1c2ccccc2CC(N)c2ccccc21 (stereo not given) | 84.5 to 86.5 |
| Cc1ccnc(C(c2cc(F)ccc2F)S(=O)(=O)c2ccc(Cl)cc2)c1 (stereo not given) | 116 to 117 |
| Cn1c(CO)nc2ncccc21 | 130 to 132 |

| SMILES | melting point [°C] |
| --- | --- |
| CN(C)C=C1CCN(Cc2ccc([N+](=O)[O-])cc2)c2ccsc2C1=O | 214 to 216 |
| N#CN=c1ccccn1C1=CC(CF)(CF)Oc2ccc(C(F)(F)C(F)(F)F)cc21 | 196 to 198 |
| Cc1sccc1C1=C(c2ccsc2C)C(F)(F)C(F)(F)C1(F)F | 73.6 |
| COc1cc2cc(-c3ccncc3)oc2cc1OC | 227 to 229 |
| O=C1c2cccc(OCc3ccccc3)c2-c2nn(CCNCCO)c3ccc(Cl)c1c23 | 165 to 167 |
| O=C(Oc1ccc([N+](=O)[O-])cc1)C(O)O | 100 to 102 |
| O=C(N[C@@H](Cc1ccc(C(F)(F)F)cc1)[C@H](O)c1ccncc1)c1ccc(F)c2ccccc12 | 239 to 243 |
| Cc1cccc(NC(c2cccc(O)c2)c2ccc3cccnc3c2O)n1 (stereo not given) | 187 to 189 |
| N#CCCNC(=O)c1n[nH]cc1NC(=O)c1ccc(C(F)(F)F)cc1 | 245 to 246 |
| N#CC(NC(=O)c1cccn2c(Cl)cnc12)c1ccco1 (stereo not given) | 142 to 143 |
| COC(=O)CCc1ccc(C(c2cc(F)ccc2F)S(=O)(=O)c2ccc(Cl)cc2)nc1 (stereo not given) | 121 to 123 |
| Nc1ccc(Oc2ccc3sncc3c2)c(C(F)(F)F)c1 | 136 |
| CCC(=O)OCC(=O)OC1C(CC)CC2C3CCC4=CC(=O)CCC4C3CCC21C (stereo not given) | 101 to 104 |
| Cc1cc2cnnc(Cl)c2n1Cc1ccccc1 | 152 to 156 |
| CCc1nc(/C=C/c2cn(-c3ccccc3)nc2OCc2ccc(OCc3nc(-c4cccc([N+](=O)[O-])c4)oc3C)c(OC)c2)cs1 | 127 to 129 |
| NCCCC1(C(N)=O)c2ccccc2-c2ccccc21 | 198 to 200 |
| C=CCOc1ccc2c(=O)c(C)c(-c3ccccc3)oc2c1C(=O)C=Cc1ccccc1 | 145 to 147 |
| Nc1ccc(C(=O)N2CCOCC2)c(N)c1 | 114 to 115 |
| O=C(COc1ccc(Cl)cc1Cc1cc(Cl)ccc1O)OCc1ccccc1 | 135 to 137 |

| SMILES | melting point [°C] |
| --- | --- |
| CCCCOc1ccc(-c2ccc(C)c(C#N)c2C#N)cc1 | 152 |
| Cc1[nH]c(=O)c(-c2csc(-c3ccnc(NCc4ccccn4)c3)n2)cc1C(=O)NCc1ccccn1 | > 260 |
| CCn1ncc2c1ncc1c(NCCCN(C)C)nc3cc(C)nn3c12 | 178 to 179 |
| CNC(=C[N+](=O)[O-])NCc1cnc(Cl)s1 | 181 |
| COC(=O)c1cn(C(c2ccccc2)(c2ccccc2)c2ccccc2)c(I)n1 | 192 to 194 |
| C=CCOC(=O)c1c(C)nc2[nH]c3ccccc3c2c1N | 220 to 222 |
| CS(=O)(=O)Nc1cc2occ(C=NO)c(=O)c2cc1Oc1ccccc1 | 199 to 200 |
| CCc1cn(C(C)(C)C(=O)N(C)C)nc1-c1ccccc1Cl | 102 to 104 |
| COc1ccc(-c2cn(-c3cccc(OCCCl)c3)c3ncnc(N)c23)cc1OCc1ccccc1 | 170 |
| Cn1c(C(F)(F)F)ccc(-c2ccc(Cl)cc2F)c1=O | 103 to 104 |
| C=Cn1cc(C(=O)OCC)c(=O)c2c(C)c(F)c(F)c(F)c21 | 134 to 136 |
| C#CCOc1ccc(OC)cc1-c1nc2ncccc2[nH]1 | 220 |
| CS(=O)(=O)c1cc(Br)nc(Br)c1 | 137 to 138 |
| O=C1CCC(c2ccc(-c3ccc(F)cc3)o2)O1 (stereo not given) | 57 to 59 |
| NC(=O)COc1cccc(CCNS(=O)(=O)c2ccc(Br)cc2)c1 | 115 to 116 |
| CC(=O)NNC1=Nc2sccc2C(c2ccccc2)=NC1 | 194 to 196 |
| CCOC(=O)C1=C(C)Nc2nc(N)nc(N)c2C1c1ccc(OC)cc1 (stereo not given) | 98 |
| O=C(NC1=Nc2cc(OCCn3cccc3)ccc2C2=NCCN12)c1cccnc1 | 209 |
| NC(=O)c1ccc(F)c(Br)c1 | 131 to 133 |

Other lines, results leading:

| melting point [°C] | SMILES |
| --- | --- |
| 149 to 151 | CC(SC(=O)c1ccccc1)C(=O)c1ccccc1NCC(=O)O (stereo not given) |
| 138 | COCCN(CCOC)c1ccc(Nc2ncc3c(C)c(C(C)=O)c(=O)n(C4CCCC4)c3n2)nc1 |
| 154 to 155 | CC(=O)NCCOc1ccc2c(-c3ccccc3F)noc2c1Cl |
| 318 to 320 | O=c1[nH]c2ncc(-c3ccc(O)cc3)nc2n1C1CCCCC1 |
| 247 to 249 | CC1(C)CCC(C)(C)c2c1ccc(C=Nc1ccc(C(N)=O)cc1)c2N |
| 110 to 111 | O=C(CCCCCl)c1cc2c3c(c1)CCN3C(=O)CC2 |
| 109 to 110 | COC(=O)C(C)(C)CCOc1ccc(C2=NNC(=O)CC2)cc1Cl |
| 138 to 139 | O=C(CCC(=O)N1CCC[C@H]1C(=O)O)c1ccc(Br)cc1 |
| 117 to 119 | CCCc1nc(C=O)c(C(=O)OCC)n1Cc1ccc(-c2ccccc2C(=O)OC(C)(C)C)cc1 |
| 118 | CCCCOc1ccc(S(=O)(=O)C2(C(=O)O)CCN(C)CC2)cc1 |
| 90 to 93 | CCCCCCCCCCCCSC(=O)CS(=O)(=O)Nc1c(OC)cc(OC)cc1OC |
| 108 to 109 | Cc1oc(-c2ccccc2)nc1COc1cccc(CON=C(CCC(=O)O)c2ccccc2)c1 |
| 196 to 200 | CC12CCC(=O)C=C1CCC1C3CC(OCCOC4CCCCO4)C(O)(C(=O)CO)C3(C)CC(O)C12F (stereo not given) |
| 50 to 51 | CCCCCCCCCCCC(=O)c1ccc(/C=C/C(=O)OCC)o1 |
| 78 | CSCc1cc(C(C)=O)c(O)cc1OCCCCCCC#N |
| 74.5 to 76 | CCOC(=O)C(=CN(C)C1(CO)CC1)C(=O)c1c(F)c(F)c(F)c(F)c1F |
| 145 | O=C1CC2(CCCC2)c2ccc(O)cc21 |
| 146 | CC(CCC(=O)O)C1CCC2C3C(O)CC4CC(O[Si](C)(C)C(C)(C)C)CCC4(C)C3CC(O)C12C (stereo not given) |
| 199 to 201 | CCOC(=O)N(C)S(=O)(=O)c1cc2c(c(Cl)c1Cl)OC(C(=O)O)C2 (stereo not given) |
| 81 to 82 | CCOC(=O)Cc1ccc(NC(=O)C(COS(C)(=O)=O)NS(=O)(=O)c2ccc(F)cc2)cc1 (racemic) |
| 86 to 91 | COC(=O)C(C(=O)c1cn2c3c(cccc13)CCC2)c1cn(C(=O)OC(C)(C)C)c2ccccc12 (stereo not given) |
| 117 to 118 | CCCOc1ccc(S(=O)(=O)N2CCN(CC)CC2)cc1-c1nc2cc3ncn(Cc4cccc(OC)c4)c3cc2c(=O)[nH]1 |

| melting point [°C] | SMILES |
| --- | --- |
| 168 to 169 | CNC(=O)c1ccc(-c2cnc3oc(=O)n(Cc4cccc(OC)c4)c3n2)cc1 |
| 75 to 76 | CN1C(=O)CCC2=C1CCc1cccc(F)c12 |
| 91 to 94 | CCOCc1cc(OC)c(-c2ccc(C[C@H](NC(=O)c3c(Cl)cccc3Cl)C(=O)OCC)cc2)c(OC)c1 |
| 151 to 153 | CCC(=O)SCC(Cc1ccccc1)C(=O)Nc1cc(C)cc(C(=O)O)c1 (stereo not given) |
| 93 to 98 | CCCSc1csc(C(=O)OC)c1S(=O)(=O)NC(C)(C)C |
| 256 to 257 | CC(C)(C)OC(=O)Nc1cc(-c2nnc(CCc3cccc(F)c3)o2)ccn1 |
| 178 to 179 | CCOC(=O)/C=C(C)/C=C/C=C(\C)C1=Cc2cc(C34CC5CC(CC(C5)C3)C4)ccc2OC1 |
| 160 to 161 | CCC(C)(Oc1ccc(CC(=O)c2ccc3c(c2)CCC3)cc1)C(=O)O (stereo not given) |
| 109 to 110 | O=C(CCc1cccnc1)NCCCC1CCN(C(c2ccccc2)c2ccccc2)CC1 |
| 64 | CCOC(=O)c1ccc(CO)cn1 |
| 275 to 276 | CCOC(=O)C(=O)Nc1cc2c3c(cccc3c1)C(=O)OC2=O |
| 263 to 265 | COc1cc2c(cc1S(=O)(=O)c1ccc(C)cc1)[C@@H](N1CCCC1=O)[C@H](O)C(C)(C)O2 (relative stereo) |
| 129 to 130 | CCOC(c1cccc(OCc2nc(-c3ccccc3)oc2C)c1)c1ccc(OC)cc1OCC(=O)O (stereo not given) |
| 114 to 115 | COc1cccc(CC(=O)O)c1OCCCc1cn(-c2ccc(C(F)(F)F)cc2)nc1C(C)C |
| 128 to 129 | COC(=O)c1ccc2[nH]c(C(=O)OCc3ccccc3)cc2c1 |
| 250 to 252 | CCOC(=O)c1cc2n(C)c3ccc(C)cc3c(=O)n2n1 |
| 113 to 116 | COc1ccc2c(c1)CCC1C2CCC2(C)C(=O)C=C(C(C)C)C12 (stereo not given) |
| 156 | CCOC(=O)C1=C(N)N=C(SCC)C(C(=O)OCC)C1c1ccncc1 (stereo not given) |
| 110 to 111 | CNC1c2c(O)c(C)cc(C)c2C2CCCCC21 (stereo not given) |
| 147 | Cc1nn(C)cc1C(=O)Nc1cccc2c1CCC2(C)C |
| 129 | CCOC(=O)Nc1cc(N(C(=O)OCC)S(C)(=O)=O)c(C#N)cc1F |

— a melting point compilation (Tetko et al.; mined from patent text by program, amines drawn as free bases though some values may be those of a salt)
